Reference: US10065990B2, “Cyclic peptide compound, and preparation method, pharmaceutical composition and use thereof” (HANGZHOU GUANYU BIO-MEDICAL CO., LTD, priority 2013, dated 2018)
Where two headings read alike, the source gives them in different places.

How the values were obtained:
[1] = test system: MCF-7 (human breast cancer cells); assay: MTT cancer cell growth inhibition; assay type: cell-based; conditions: Homo sapiens, MCF7, 72 h, 72 hours incubation, read-out: GI50 MCF
Summary of the method: (§1)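 Growth inhibition is scored with MTT after three days of compound treatment spanning 10^−5–10^−10 M. Cells are maintained in DMEM or 1640 medium containing 10% FBS and plated at 1500 per well the previous night; absorbance at 570 nm gives viability, from which GI50 is calculated.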

[2] = test system: SGC-7901 (human gastric cancer cells); assay: MTT cancer cell growth inhibition; assay type: cell-based; conditions: Homo sapiens, SGC-7901, 72 h, MTT, 72 hours incubation, SGC-7901 cells; read-out: GI50 SGC-7901
Summary of the method: as §1

[3] = test system: K562 (human leukemia cells); assay: MTT cancer cell growth inhibition; assay type: cell-based; conditions: Homo sapiens, K562, 72 h, MTT, 72 hours incubation, K562 cells; read-out: GI50 K562
Summary of the method: as §1

[4] = test system: KBM5-T315I (human chronic myelogenous leukemia); assay: MTT cancer cell growth inhibition; assay type: cell-based; conditions: Homo sapiens, 72 h, MTT, 72 hours incubation, KBM5-T315I cells; read-out: GI50 KBM5-T315I
Summary of the method: as §1

[5] = test system: BGC-823 (human gastric cancer cells); assay: MTT cancer cell growth inhibition; assay type: cell-based; conditions: Homo sapiens, BGC-823, 72 h, MTT, 72 hours incubation, read-out: GI50 BG
Summary of the method: as §1

[6] = test system: Hela (human cervical cancer cells); assay: MTT cancer cell growth inhibition; assay type: cell-based; conditions: Homo sapiens, HeLa, 72 h, MTT, 72 hours incubation, read-out: GI50 Hela
Summary of the method: as §1

[7] = test system: Bel-7402 (human hepatoma cells); assay: MTT cancer cell growth inhibition; assay type: cell-based; conditions: Homo sapiens, Bel-7402, 72 h, MTT, 72 hours incubation, Bel-7402 cells; read-out: GI50 Bel-7402
Summary of the method: as §1

[8] = test system: A549 (human lung cancer cells); assay: MTT cancer cell growth inhibition; assay type: cell-based; conditions: Homo sapiens, A549, 72 h, MTT, 72 hours incubation, read-out: GI50 A54
Summary of the method: as §1

[9] = test system: H1975 (non-small cell lung adenocarcinoma); assay: MTT cancer cell growth inhibition; assay type: cell-based; conditions: Homo sapiens, NCI-H1975, 72 h, MTT, 72 hours incubation, H1975 cells; read-out: GI50 H1975
Summary of the method: as §1

[10] = test system: MOLT-4 (human acute lymphoblastic leukemia cells); assay: MTT cancer cell growth inhibition; assay type: cell-based; conditions: Homo sapiens, MOLT-4, 72 h, MTT, 72 hours incubation, read-out: GI50 Mol
Summary of the method: as §1

[11] = test system: lncap (prostate cancer cells); assay: MTT cancer cell growth inhibition; assay type: cell-based; conditions: Homo sapiens, LNCaP, 72 h, MTT, 72 hours incubation, read-out: GI50 lnca
Summary of the method: as §1

[12] = test system: HT1080 (human fibrosarcoma cells); assay: MTT cancer cell growth inhibition; assay type: cell-based; conditions: Homo sapiens, HT-1080, 72 h, MTT, 72 hours incubation, read-out: GI50 HT1
Summary of the method: as §1

[13] = test system: Huh-7 (human hepatoma cells); assay: MTT cancer cell growth inhibition; assay type: cell-based; conditions: Homo sapiens, Huh-7, 72 h, MTT, 72 hours incubation, Huh-7 cells; read-out: GI50 Huh-7
Summary of the method: as §1

[14] = test system: MDA-MB-231 (breast cancer cells); assay: MTT cancer cell growth inhibition; assay type: cell-based; conditions: Homo sapiens, MDA-MB-231, 72 h, read-out: GI50 MDA-MB-231, MTT, 72 hours incubation, MDA-MB-231 cells
Summary of the method: as §1

[15] = test system: U937 (human leukemia cells); assay: MTT cancer cell growth inhibition; assay type: cell-based; conditions: Homo sapiens, U-937, 72 h, MTT, 72 hours incubation, read-out: GI50 U93
Summary of the method: as §1

[16] = test system: HCC827 (human non-small cell lung cancer cells); assay: MTT cancer cell growth inhibition; assay type: cell-based; conditions: Homo sapiens, HCC827, 72 h, MTT, 72 hours incubation, HCC827 cells; read-out: GI50 HCC827
Summary of the method: as §1

[17] = test system: DU145 (human prostate cancer cells); assay: MTT cancer cell growth inhibition; assay type: cell-based; conditions: Homo sapiens, DU-145, 72 h, MTT, 72 hours incubation, read-out: GI50 Du1
Summary of the method: as §1

[18] = test system: KBM-5 (human chronic myelogenous leukemia); assay: MTT cancer cell growth inhibition; assay type: cell-based; conditions: Homo sapiens, KBM5, 72 h, MTT, 72 hours incubation, KBM-5 cells; read-out: GI50 KBM-5
Summary of the method: as §1

[19] = test system: N-87 (human gastric cancer cells); assay: MTT cancer cell growth inhibition; assay type: cell-based; conditions: Homo sapiens, 72 h, MTT, 72 hours incubation, N-87 cells; read-out: GI50 N-87
Summary of the method: as §1

[20] = test system: PANC-1 (Pac-1, human pancreatic cancer cells); assay: MTT cancer cell growth inhibition; assay type: cell-based; conditions: Homo sapiens, PANC-1, 72 h, MTT, 72 hours incubation, read-out: GI50 PAN
Summary of the method: as §1

[21] = molecular target: T1, HDAC7 (Homo sapiens, UniProt Q8WUI4); assay: HDAC biochemical activity measurement (fluorescent substrate deacetylation);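 as to all read-outs here: fluorogenic deacetylation assay using acetyl-lysine substrate at 20 µM, enzyme and compound incubated 30 min at 37 °C, then developer added, fluorescence read at 360/460 nm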; conditions: for IC50 HDAC7: 37° C. 30 minutes
T1 sequence (Q8WUI4 1-952): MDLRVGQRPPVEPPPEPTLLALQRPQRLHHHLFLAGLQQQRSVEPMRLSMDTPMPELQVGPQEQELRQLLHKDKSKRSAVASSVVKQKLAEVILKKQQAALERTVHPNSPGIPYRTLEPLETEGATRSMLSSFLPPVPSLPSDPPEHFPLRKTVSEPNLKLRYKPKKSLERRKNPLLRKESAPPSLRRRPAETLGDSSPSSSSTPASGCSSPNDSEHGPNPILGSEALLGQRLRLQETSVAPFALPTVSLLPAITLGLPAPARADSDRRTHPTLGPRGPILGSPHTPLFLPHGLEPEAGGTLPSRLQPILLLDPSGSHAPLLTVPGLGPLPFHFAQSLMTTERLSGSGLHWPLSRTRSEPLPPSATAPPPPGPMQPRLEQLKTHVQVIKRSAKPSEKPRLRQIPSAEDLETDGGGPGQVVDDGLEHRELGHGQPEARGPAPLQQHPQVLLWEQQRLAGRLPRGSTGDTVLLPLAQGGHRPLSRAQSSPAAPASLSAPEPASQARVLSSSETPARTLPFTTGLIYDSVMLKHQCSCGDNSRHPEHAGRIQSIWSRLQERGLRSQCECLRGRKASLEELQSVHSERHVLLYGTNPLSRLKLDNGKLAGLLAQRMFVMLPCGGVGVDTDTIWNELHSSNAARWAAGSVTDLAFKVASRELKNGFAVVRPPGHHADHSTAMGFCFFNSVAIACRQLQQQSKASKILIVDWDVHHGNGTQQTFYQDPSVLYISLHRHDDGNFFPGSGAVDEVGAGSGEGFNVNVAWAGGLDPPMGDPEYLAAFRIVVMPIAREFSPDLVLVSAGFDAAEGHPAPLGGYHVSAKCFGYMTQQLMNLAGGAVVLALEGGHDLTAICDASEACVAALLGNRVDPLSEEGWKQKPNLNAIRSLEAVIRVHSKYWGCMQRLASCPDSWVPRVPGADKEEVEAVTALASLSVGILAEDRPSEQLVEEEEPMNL

Row | SMILES | GI50 ([1]; MCF-7 cells) [nM] | GI50 [2] [nM] | GI50 [3] [nM] | GI50 [4] [nM] | GI50 ([5]; BGC-823 cells) [nM] | GI50 ([6]; Hela cells) [nM] | GI50 [7] [nM] | GI50 ([8]; A549 cells) [nM] | GI50 [9] [nM] | GI50 ([10]; MOLT-4 cells) [nM] | GI50 ([11]; lncap cells) [nM] | GI50 ([12]; HT1080 cells) [nM] | GI50 [13] [nM] | GI50 [14] [nM] | GI50 ([15]; U937 cells) [nM] | GI50 [16] [nM] | GI50 ([17]; DU145 cells) [nM] | GI50 [18] [nM] | GI50 [19] [nM] | IC50 HDAC7 [21] | other results
1 | C/C=C1\NC(=O)c2ccc(SCC)c(n2)CNC(=O)C[C@@H](/C=C/CCSC(=O)CCCCC)OC(=O)[C@H](C(C)C)NC1=O [Compound 255] | 80 | 48 | 56 | 37 | 30 | 10 | 35 | 30 | 68 | 50 | 50 | 60 | 45 | 23 | 20 | 57 | 40 | 32 | 51 | – | GI50 ([20]; PANC-1 cells): 40 nM; IC50 (μM) HDAC7 [21]: no activity
2 | C/C=C1\NC(=O)c2nccc(n2)CNC(=O)C[C@@H](/C=C/CCS)OC(=O)[C@H](C)NC1=O [Compound 144] | – | 41 | 11 | 127 | – | – | 35 | – | 38 | – | – | – | 23 | 37 | – | 12 | – | 11 | 29 | no activity | GI50 [1]: 60 nM; GI50 [5]: 70 nM; GI50 [6]: 50 nM; GI50 [8]: 70 nM; GI50 [10]: 70 nM; GI50 [11]: 50 nM; GI50 [12]: 70 nM; GI50 [15]: 70 nM; GI50 [17]: 60 nM; GI50 [20]: 70 nM
3 | C/C=C1\NC(=O)c2nc(ccc2SCC)CNC(=O)C[C@@H](/C=C/CCSC(=O)CCCCCCC)OC(=O)[C@H](C(C)C)NC1=O [Compound 247] | 50 | 65 | 33 | 45 | 10 | 50 | 95 | 60 | 32 | 30 | 20 | 60 | 53 | 38 | 70 | 41 | 20 | 32 | 23 | no activity | GI50 ([20]; PANC-1 cells): 50 nM
4 | C/C=C1\NC(=O)c2nc(ccc2SC)CNC(=O)C[C@@H](/C=C/CCSC(=O)CCCCCC)OC(=O)[C@H](C(C)C)NC1=O [Compound 150] | 40 | 87 | 55 | 39 | 30 | 60 | 58 | 30 | 79 | 80 | 60 | 80 | 46 | 21 | 30 | 63 | 40 | 26 | 33 | no activity | GI50 ([20]; PANC-1 cells): 30 nM

These reach a lower GI50 [2]. Values come first.

Row | GI50 ([1]; MCF-7 cells) [nM] | GI50 [2] [nM] | GI50 [3] [nM] | GI50 [4] [nM] | GI50 ([5]; BGC-823 cells) [nM] | GI50 ([6]; Hela cells) [nM] | GI50 [7] [nM] | GI50 ([8]; A549 cells) [nM] | GI50 [9] [nM] | GI50 ([10]; MOLT-4 cells) [nM] | GI50 ([11]; lncap cells) [nM] | GI50 ([12]; HT1080 cells) [nM] | GI50 [13] [nM] | GI50 [14] [nM] | GI50 ([15]; U937 cells) [nM] | GI50 [16] [nM] | GI50 ([17]; DU145 cells) [nM] | GI50 [18] [nM] | GI50 [19] [nM] | IC50 HDAC7 [21] | SMILES | other results
5 | – | 39 | 29 | 57 | – | – | 27 | – | 35 | – | – | – | 41 | 31 | – | 53 | – | 41 | 61 | no activity | C/C=C1\NC(=O)c2ccc(F)c(n2)CNC(=O)C[C@@H](/C=C/CCS)OC(=O)[C@H](CCCCN)NC1=O [Compound 118] | GI50 [1]: 60 nM; GI50 [5]: 60 nM; GI50 [6]: 70 nM; GI50 [8]: 30 nM; GI50 [10]: 20 nM; GI50 [11]: 20 nM; GI50 [12]: 80 nM; GI50 [15]: 30 nM; GI50 [17]: 40 nM; GI50 [20]: 80 nM
6 | – | 34 | 16 | 38 | – | – | 83 | – | 26 | – | – | – | 31 | 31 | – | 83 | – | 93 | 13 | no activity | CC(=O)SCC/C=C/[C@@H]1CC(=O)NCc2nc(ccc2F)C(=O)NC(=C(C)C)C(=O)N[C@@H](C(C)C)C(=O)O1 [Compound 89] | GI50 [1]: 30 nM; GI50 [5]: 10 nM; GI50 [6]: 90 nM; GI50 [8]: 30 nM; GI50 [10]: 30 nM; GI50 [11]: 30 nM; GI50 [12]: 80 nM; GI50 [15]: 20 nM; GI50 [17]: 10 nM; GI50 [20]: 80 nM
